Data reported in patent US20250326748A1, “COMPOUNDS AND METHODS FOR MODULATING SPLICING” (REMIX THERAPEUTICS INC., priority 2022, published 2025).
Read-outs that look alike come from different tables or passages of the source.

Assays:
Target C = assay: HiBiT protein abundance assay, Target C (K562 HiBiT knock-in); type: cell-based, human; conditions: HiBiT knock-in cells, 24 hours
Method in brief: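 K562 HiBiT knock-in cells (10000/well) in IMDM + 1% FBS were treated for 24 h at 37° C. with a 10-point 3-fold dilution series (top 10 μM final), with DMSO ≤0.25%. Unmodified K562 served as baseline. HiBiT lytic luminescence was normalized to controls, and IC50 was interpolated at 50% from a four-parameter fit.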

SMN2 mRNA = assay: Splicing RT-qPCR panel, SMN2 canonical junction (CJ) mRNA; type: cell-based, human; conditions: read-out: SMN2 CJ (decrease in CJ mRNA levels, IC50)
Method in brief: (§1)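 A673 cells (DMEM, 10% FBS) or K562 cells (IMDM, 10% FBS) treated 24 h at 37 °C with an 11-point 3-fold dilution, top 10 uM, DMSO ≤0.25%. Canonical-junction mRNA quantified in lysates by RT-qPCR, normalised to GAPDH, GUSB or PPIA and to DMSO (2^−ΔΔCt), then converted to % response.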

HiBiT-tagged HTT protein = assay: HiBiT protein abundance assay, HTT (K562 HiBiT knock-in); type: cell-based, human; conditions: HiBiT knock-in cells, 24 hours
Method in brief: (§2)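 Endogenously HiBiT-tagged K562 knock-in lines treated 24 h at 37 °C with 10-point 3-fold dilutions (top 10 μM final, DMSO ≤0.25%) in IMDM+1% FBS. Lytic Nano-Glo luminescence normalized to DMSO and unmodified K562 controls; four-parameter fit gives 50%-abundance concentration (IC50).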

HiBiT-tagged MYB protein = assay: HiBiT protein abundance assay, MYB (K562 HiBiT knock-in); type: cell-based, human; conditions: HiBiT knock-in cells, 24 hours
Method in brief: as §2

K562 cells = assay: Cell viability, Cell Titer Glo 2.0 assay, K562; conditions: 72 hours
Description: Compounds described herein were screened for toxicity in K562 (human chronic myelogenous leukemia) and SH-SY5Y (human neuroblastoma) cells using a Cell Titer Glo 2.0 assay.
• Promega CellTiter-Glo® 2.0 Cell Viability Assay (cat #G9241) • Corning 384-well TC-treated microplates (cat #3570)
Cells were plated at 500 cells/well (K562 cells) in 45 μL of IMDM supplemented with 10% FBS in a 384-well opaque plate. Wells containing only medium were used as a blank control. Test compounds (e.g., compounds of Formula (I) or (II)) were first serially diluted in DMSO then diluted 1:100 with IMDM+10% FBS. The final concentration of DMSO was 0.1% in each well. The cells were incubated for 72 hours at 37° C. and 5% CO2 before assaying with Cell Titer Glo 2.0 reagent.

Target C mRNA = assay: Splicing RT-qPCR panel, Target C canonical junction (CJ) mRNA; type: cell-based, human; conditions: read-out: Target C CJ (decrease in CJ mRNA levels, IC50)
Method in brief: as §1

Structure (SMILES) | IC50 (Target C) [nM] | IC50 (SMN2 mRNA; Homo sapiens) [nM] | IC50 (HiBiT-tagged HTT protein) [nM] | IC50 (HiBiT-tagged MYB protein) [nM] | Effect on Cell Viability, K562 (K562 cells) | IC50 (Target C mRNA; Homo sapiens) [nM] | IC50 (SMN2 mRNA) [nM] | IC50 (Target C mRNA) [nM]
CC1CN(c2cnc3nc(-c4cc(F)c5nn(C)cc5c4)cc(Cl)c3c2)CCN1 (stereo not drawn) [Compound 203, 4-chloro-2-(7-fluoro-2-methyl-2H-indazol-5-yl)-6-(3-methylpiperazin-1-yl)-1,8-naphthyridine 2,2,2-trifluoroacetate] | 1000 to 10000 | < 100 | 100 to 1000 | 100 to 1000 | B (100-1000 nM) | 1000 to 10000 | – | –
Cc1c(O)c(-c2cc(Cl)c3cc(N(C)C4CCNC4)cnc3n2)cc2cn(C)nc12 (stereo not drawn) [Compound 204, 5-[4-chloro-6-(367pyrrolidine-3-ylamino)-1,8-naphthyridin-2-yl]-2,7-dimethylindazol-6-ol] | 1000 to 10000 | < 100 | 100 to 1000 | 100 to 1000 | B (100-1000 nM) | > 10000 | – | –
C[C@@H]1CN(c2cnc3nc(-c4cc5cn(C)nc5c(F)c4O)ccc3c2)C[C@H](C)N1 [Compound 206] | 100 to 1000 | < 100 | < 100 | < 100 | A (<100 nM) | 100 to 1000 | – | –
Cc1c(O)c(-c2cc(Cl)c3cc(N4C[C@@H](C)N[C@@H](C)C4)cnc3n2)cc2cn(C)nc12 [Compound 207, 5-{4-chloro-6-[(3R,5S)-3,5-dimethylpiperazin-1-yl]-1,8-naphthyridin-2-yl}-2,7-dimethylindazol-6-ol] | 100 to 1000 | – | < 100 | < 100 | A (<100 nM) | – | < 100 | 100 to 1000
C[C@@H]1CN(c2cnc3nc(-c4cc5cn(C)nc5cc4O)cc(Cl)c3c2)C[C@H](C)N1 [Compound 208] | 1000 to 10000 | < 100 | 100 to 1000 | < 100 | B (100-1000 nM) | 1000 to 10000 | – | –
Cn1cc2cc(-c3cc(Cl)c4cc(N5CCNC(C6CC6)C5)cnc4n3)cc(F)c2n1 (stereo not drawn) [Compound 209, 4-chloro-6-(3-cyclopropylpiperazin-1-yl)-2-(7-fluoro-2-methylindazol-5-yl)-1,8-naphthyridine] | 1000 to 10000 | < 100 | 100 to 1000 | 100 to 1000 | B (100-1000 nM) | 1000 to 10000 | – | –
Cc1cn2nc(-c3ccc4cc(NC5CCNCC5)cnc4n3)cc(C)c2n1 [Compound 210, 7-{2,8-dimethylimidazo[1,2-b]pyridazin-6-yl}-N-(piperidin-4-yl)-1,8-naphthyridin-3-amine; trifluoroacetic acid] | 1000 to 10000 | 100 to 1000 | 1000 to 10000 | 1000 to 10000 | C (1000-9999 nM) | > 10000 | – | –
CN[C@@H]1CCN(c2cnc3nc(-c4cc5cn(C)nc5c(C)c4O)nc(OC)c3c2)C1 [Compound 211, 5-{4-methoxy-6-[(3R)-3-(methylamino)pyrrolidin-1-yl]pyrido[2,3-d]pyrimidin-2-yl}-2,7-dimethylindazol-6-ol] | < 100 | < 100 | < 100 | < 100 | A (<100 nM) | 100 to 1000 | – | –
CN[C@H]1CCN(c2cnc3nc(-c4cc5cn(C)nc5c(C)c4O)nc(OC)c3c2)C1 [Compound 212, 5-{4-methoxy-6-[(3S)-3-(methylamino)pyrrolidin-1-yl]pyrido[2,3-d]pyrimidin-2-yl}-2,7-dimethylindazol-6-ol] | 100 to 1000 | < 100 | < 100 | < 100 | A (<100 nM) | 1000 to 10000 | – | –
CNC1CCN(c2cnc3nc(-c4cc5cn(C)nc5cc4O)cc(Cl)c3c2)C1 (stereo not drawn) [Compound 213, 5-{4-chloro-6-[3-(methylamino)370pyrrolidine-1-yl]-1,8-naphthyridin-2-yl}-2-methylindazol-6-ol] | 100 to 1000 | < 100 | 100 to 1000 | < 100 | B (100-1000 nM) | 1000 to 10000 | – | –
Cc1c(O)c(-c2ncc3cc(N4C[C@@H](C)N[C@@H](C)C4)cnc3n2)cc2cn(C)nc12 [Compound 214] | 1000 to 10000 | < 100 | 100 to 1000 | 100 to 1000 | B (100-1000 nM) | 1000 to 10000 | – | –
C[C@@H]1CN(c2cnc3nc(-c4cc(F)c5nn(C)cc5c4)cc(Cl)c3c2)C[C@H](C)N1 [Compound 215] | 1000 to 10000 | < 100 | 1000 to 10000 | 100 to 1000 | B (100-1000 nM) | 1000 to 10000 | – | –
Cn1cc2cc(-c3cc(Cl)c4cc(N5CCN6CCCC6C5)cnc4n3)cc(F)c2n1 (stereo not drawn) [Compound 216, 4-chloro-2-(7-fluoro-2-methylindazol-5-yl)-6-{hexahydro-1H-pyrrolo[1,2-a]pyrazin-2-yl}-1,8-naphthyridine trifluoroacetic acid] | 1000 to 10000 | < 100 | 1000 to 10000 | 100 to 1000 | B (100-1000 nM) | > 10000 | – | –
Cc1c(O)c(-c2cc(-c3ccccn3)c3cc(N4C[C@@H](C)N[C@@H](C)C4)cnc3n2)cc2cn(C)nc12 [Compound 217, 5-{6-[(3R,5S)-3,5-dimethylpiperazin-1-yl]-4-(pyridin-2-yl)-1,8-naphthyridin-2-yl}-2,7-dimethylindazol-6-ol] | 1000 to 10000 | > 10000 | 1000 to 10000 | 1000 to 10000 | C (1000-9999 nM) | > 10000 | – | –
COc1nc(-c2cc3cn(C)nc3c(F)c2O)nc2ncc(N3C[C@@H](C)N[C@@H](C)C3)cc12 [Compound 218] | 100 to 1000 | < 100 | < 100 | < 100 | A (<100 nM) | 100 to 1000 | – | –
COc1nc(-c2cc3cn(C)nc3c(F)c2O)nc2ncc(N3CCC(N(C)C)CC3)cc12 [Compound 219, 5-{6-[4-(dimethylamino)piperidin-1-yl]-4-methoxypyrido[2,3-d]pyrimidin-2-yl}-7-fluoro-2-methylindazol-6-ol] | 100 to 1000 | < 100 | < 100 | < 100 | A (<100 nM) | 100 to 1000 | – | –
CN(C)[C@@H]1CCN(c2cnc3nc(-c4cc5cn(C)nc5c(F)c4O)cc(Cl)c3c2)C1 [Compound 220] | 100 to 1000 | < 100 | < 100 | < 100 | A (<100 nM) | 100 to 1000 | – | –
CN(C)[C@H]1CCN(c2cnc3nc(-c4cc5cn(C)nc5c(F)c4O)cc(Cl)c3c2)C1 [Compound 221] | 100 to 1000 | < 100 | < 100 | < 100 | A (<100 nM) | 100 to 1000 | – | –
C[C@H]1CN(c2cnc3nc(-c4cc5cn(C)nc5cc4O)cc(Cl)c3c2)C[C@H](C)N1 [Compound 242] | 100 to 1000 | < 100 | 100 to 1000 | < 100 | A (<100 nM) | 1000 to 10000 | – | –
